Measured values: patent US11111463B2, “Solid cleansing compositions with taurine and methods thereof” (Colgate-Palmolive Company, priority 2016, dated 2021)

Experiment: MTT colorimetric assay, dose response, cell viability
Type: cell-based
Settings: human, HaCat cells, untreated = 100
Protocol: An MTT colorimetric assay (HaCat Cells) dose response experiment was conducted to analyze cell viability, or the percentage of cells present after treatment. Particularly, the MTT colorimetric assay was conducted to determine cell viability of the anhydrous 2:1 urea to taurine ionic liquid (2) of Example 1 in comparison to taurine. The HaCat Cells were 60-70% confluent, and a PBS buffer was used for serial volumetric dilutions. The results of the MTT colorimetric assay are summarized in Table 6, and highlight the effectiveness of the ionic liquid form. Cell viability greater than 100% indicates cell growth or proliferation, and cell viability less than 100% indicates cell death.

For `NCCS(=O)(=O)O` [Taurine, 2-aminoethanesulfonic acid], the viability at 1e-05 w/w % (concentration of taurine 0.00001 w/w %) was 137%, the viability at 0.0001 w/w % (concentration of taurine 0.00010 w/w %) was 120% and the viability at 0.001 w/w % (concentration of taurine 0.00100 w/w %) was 141%. For the same compound, the viability at 0.01 w/w % (concentration of taurine 0.01000 w/w %) was 147% and the viability at 0.1 w/w % (concentration of taurine 0.10000 w/w %) was 99%.
